Experimental data published in paper PMC8286823, “Identifying SARS-CoV-2 antiviral compounds by screening for small molecule inhibitors of nsp15 endoribonuclease” (Biochemical Journal, 2021).
Where “and” joins values, the source holds several entries; their conditions need not be identical. Equal entries are not always repeated. Structures can show the parent of a compound that is named as a salt.

Experiments:
[1] = target: T1, SARS-CoV-2 nsp15 endoribonuclease (Severe acute respiratory syndrome coronavirus 2, UniProt P0DTD1)
[2] = target: T1, SARS-CoV-2 nsp15 endoribonuclease; type: biochemical; conditions: 100 µM compound, 500 nM nsp15, 1 µM 16 nt U substrate; for mean cleavage (%): 20 min at 30°C, n=3
[3] = target: T1, SARS-CoV-2 nsp15 endoribonuclease; test: biochemical; type: biochemical
[4] = target: T2, Pierce Universal Nuclease (benzonase) (Serratia marcescens, UniProt P13717); test: Gel-based nuclease specificity assay with 16 nt U substrate, benzonase; type: biochemical; conditions: 0, 11, 33 or 100 µM; 25 mU/µl Pierce Universal Nuclease, 1 µM 16 nt U substrate
T2 construct: purchased Pierce
T2 sequence (P13717 22-266): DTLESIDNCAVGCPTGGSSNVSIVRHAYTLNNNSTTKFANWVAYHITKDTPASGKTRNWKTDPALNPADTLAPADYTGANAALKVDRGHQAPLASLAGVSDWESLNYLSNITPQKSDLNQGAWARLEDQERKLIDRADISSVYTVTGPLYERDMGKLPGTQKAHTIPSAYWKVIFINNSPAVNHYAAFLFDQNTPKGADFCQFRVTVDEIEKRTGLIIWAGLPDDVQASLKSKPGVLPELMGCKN

[5] = target: RNase A (Bos taurus, UniProt P61823); test: Gel-based nuclease specificity assay with 16 nt U substrate, RNase A; type: biochemical; conditions: 0, 11, 33 or 100 µM; 1 pg/µl RNase A, 1 µM 16 nt U substrate
Chain of RNase A (P61823 27-150): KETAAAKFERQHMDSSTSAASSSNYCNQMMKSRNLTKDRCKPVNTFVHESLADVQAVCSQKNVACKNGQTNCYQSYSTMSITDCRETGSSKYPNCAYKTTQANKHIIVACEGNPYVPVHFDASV

[6] = test system: VERO E6 cells; test: Cell survival (cell area, DRAQ5) in SARS-CoV-2 infectivity assay; type: cell-based, Chlorocebus sabaeus; conditions: infected VERO E6 cells, 22 h
Protocol: (§1) We infected VERO E6 cells with SARS-CoV-2 in the presence of a range of concentrations of NSC95397 and quantified viral infected area (Figure 5A,B). NSC95397 sacrificed VERO E6 cells at concentrations above 10 μM, consistent with previous reports that NSC95397 is an inhibitor of the Cdc25 protein phosphatase and multiple protein kinases [[39–42]]. This made it more difficult to assess viral growth. With the aim of finding a concentration of NSC95397 that inhibited viral growth without killing the cells, we performed a second titration at lower NSC95397 concentrations (Figure 5C,D).
(§2) Figure 5. […] (A) SARS-CoV-2 infectivity assays in the presence of NSC95397. DNA in cells was stained with DRAQ5, and virus was immunostained with anti-N antibody. (B) Quantification of normalised viral area (black) and cell area (gray) ±SD. […] (D) Quantification of C as in B. (E) SARS-CoV-2 infectivity assays as in C in the presence of 0.5 µM remdesivir. (F) Quantification of E as in B, note that black control line is quantification of control experiment in C.
(§3) Infectivity assays were performed as in the accompanying manuscript (see Zeng et al.). […] The whole well area was delineated, and area of Alexa488/N protein and DRAQ5/DNA signals were determined for each well. […]

[7] = test system: SARS-CoV-2; test: SARS-CoV-2 infectivity assay in VERO E6 cells (viral area, anti-N staining); type: cell-based
Protocol: as §1, §2, §3

SMILES | activity [1] | mean cleavage (%) [2] | other results
CC(COc1ccccc1)N(CCCl)Cc1ccccc1 (stereo not drawn) [Phenoxybenzamine] | 37% | 58% | 
Oc1cc2c(cc1O)C(c1ccccc1)CNCC2 (stereo not drawn) [SKF 38393 hydrobromide] | 65% | 62% | 
O=C1c2cc([N+](=O)[O-])ccc2-n2c1nc1ccccc1c2=O [GNF-PF-3777] |  | 60% | effect on nsp15 endoribonuclease activity in gel-based assay [2]: had no effect even at 100 µM
CC(C)(C)c1nc2c3cc[nH]c(=O)c3c3cc(F)ccc3c2[nH]1 [JAK Inhibitor I] |  | 65% | 
Cc1c(COc2cc(OCc3cccc(C#N)c3)c(CN3C[C@H](O)C[C@@H]3C(=O)O)cc2Cl)cccc1-c1ccc2c(c1)OCCO2 [BMS-1166] |  | 58% | inhibition of nsp15 endoribonuclease activity in plate reader [3]: able to inhibit nsp15 endoribonuclease activity; effect on nsp15 endoribonuclease activity in gel-based assay [2]: did not inhibit the enzyme even at 100 µM
C=C(C)[C@@H]1CC[C@]2(C(=O)O)CC[C@]3(C)[C@H](CC[C@@H]4[C@@]5(C)CC[C@H](O)C(C)(C)[C@@H]5CC[C@]43C)[C@@H]12 [Betulinic acid] |  | 51% | 
Cc1ncc([N+](=O)[O-])n1CC(O)CCl (stereo not drawn) [Ornidazole] | 66% | 62% | 
O=Nc1ccc2oc(=O)ccc2c1 [NOBP] |  | 63% | 
COc1cc(/C=C/C(=O)CC(=O)/C=C/c2ccc(O)c(OC)c2)ccc1O [Curcumin] | 95% and 100% |  | 
C[C@H]1CC[C@@]2(OC1)O[C@H]1C[C@H]3[C@@H]4CC[C@@H]5C[C@@H](O)CC[C@]5(C)[C@H]4CC[C@]3(C)[C@H]1[C@@H]2C [Sarsasapogenin] | 100% and 96% |  | 
CN1C[C@H](C(=O)N[C@]2(C)O[C@@]3(O)[C@@H]4CCCN4C(=O)[C@H](Cc4ccccc4)N3C2=O)C=C2c3cccc4[nH]cc(c34)C[C@H]21 [Ergotamine] | 99% and 100% |  | 
Cl.Cl.NCCC(=O)NCCc1cnc[nH]1 [Carcinine dihydrochloride] |  | 76% | 
O=C1C(SCCO)=C(SCCO)C(=O)c2ccccc21 [NSC95397] |  | 9% | Hill slope [3]: -2.5; IC50 [3]: 43 µM; inhibition of nsp15 endoribonuclease activity in plate reader [3]: able to inhibit nsp15 endoribonuclease activity; effect on nsp15 endoribonuclease activity in gel-based assay [2]: inhibited nsp15 endoribonuclease; effect on nuclease cleavage by benzonase [4]: did not affect nuclease cleavage; effect on nuclease cleavage by RNase A [5]: did not affect nuclease cleavage; concentration that sacrificed VERO E6 cells [6]: above 10 μM; SARS-CoV-2 viral growth in VERO E6 cells ([7]; MOI 0.5 PFU/cell, 22 h post-infection, titration at lower concentrations): viral growth was not inhibited; additive effect with remdesivir on SARS-CoV-2 infectivity ([7]; VERO E6 cells, NSC95397 titration in the presence of 0.5 µM remdesivir): did not observe any additive effect
Cn1cnc2nc(NCCO)nc(NCc3ccccc3)c21 [Iso-Olomoucine] |  | 60% | 
CO[C@@H]1[C@@H](OC(N)=O)[C@@H](O)[C@H](Oc2ccc3c(O)c(NC(=O)c4ccc(O)c(CC=C(C)C)c4)c(=O)oc3c2C)OC1(C)C [Novobiocin] | 98% and 95% |  | 
CN1C[C@H](C(=O)N[C@]2(C)O[C@@]3(O)[C@@H]4CCCN4C(=O)[C@H](Cc4ccccc4)N3C2=O)C[C@@H]2c3cccc4[nH]cc(c34)C[C@H]21 [Dihydroergotamine mesylate] | 95% and 98% |  | 
CC#C[C@]1(O)CC[C@H]2[C@@H]3CCC4=CC(=O)CCC4=C3[C@@H](c3ccc(N(C)C)cc3)C[C@@]21C [Mifepristone] | 85% | 63% | 
O=c1cc(-c2ccccc2)oc2cc(O)c(O)c(O)c12 [Baicalein] | 80% | 64% | 
CCCNS(=O)(=O)Nc1ncnc(OCCOc2ncc(Br)cn2)c1-c1ccc(Br)cc1 [Macitentan] |  | 64% | 
